Source: ChEMBL document CHEMBL4190243, “Natural alkaloids as P-gp inhibitors for multidrug resistance reversal in cancer” (Eur J Med Chem, 2017)
pEC50, pIC50: −log10 of the molar value. Blank lines part the entries; values can stand above or below the molecule they belong to.

Assays:
[1] = species: Homo sapiens; assay: Inhibition of P-gp in human HCT116/VM46 cells assessed as potentiation of vinblastine-induced cytotoxicity by measuring fold reduction in vinblastine IC50; format: cell-based
[2] = species: Homo sapiens; assay: Inhibition of P-gp in human CCRF-CEM/VLB100 cells assessed as potentiation of vinblastine-induced cytotoxicity by measuring fold reduction in vinblastine IC50
[3] = species: Homo sapiens; assay: Inhibition of P-gp in human HCT116/VM46 cells assessed as potentiation of doxorubicin-induced cytotoxicity by measuring fold reduction in doxorubicin IC50; format: cell-based
[4] = species: Mus musculus; assay: Inhibition of P-gp in mouse P388/DOX cells assessed as potentiation of doxorubicin-induced cytotoxicity by measuring fold reduction in doxorubicin IC50; format: cell-based
[5] = species: Homo sapiens; assay: Inhibition of P-gp in human SW620/AD300 cells assessed as potentiation of doxorubicin-induced cytotoxicity by measuring fold reduction in doxorubicin IC50; format: cell-based
[6] = tested on: K562/A02; assay: Inhibition of P-gp in human K562/A02 cells assessed as potentiation of doxorubicin-induced cytotoxicity by measuring fold reduction in doxorubicin IC50; format: cell-based
[7] = molecular target: Multidrug resistance-associated protein 1 (Homo sapiens, UniProt P33527); assay: Inhibition of MRP1 in human MCF7/ADR cells assessed as potentiation of mitoxantrone-induced cytotoxicity by measuring fold reduction in mitoxantrone IC50 at 50 uM after 0.5 to 4 hrs by fluorometric method; format: cell-based
[8] = species: Homo sapiens; assay: Inhibition of P-gp in human MCF7/DOX cells assessed as potentiation of doxorubicin-induced cytotoxicity by measuring fold reduction in doxorubicin IC50 at 5 uM; format: cell-based
[9] = species: Homo sapiens; assay: Inhibition of P-gp in human MCF7/ADR cells assessed as potentiation of doxorubicin-induced cytotoxicity by measuring fold reduction in doxorubicin IC50 at 50 uM after 0.5 to 4 hrs by fluorometric method; format: cell-based
[10] = species: Homo sapiens; assay: Inhibition of P-gp in human lung cancer cells assessed as potentiation of doxorubicin-induced cytotoxicity by measuring fold reduction in doxorubicin IC50; format: cell-based
[11] = species: Homo sapiens; assay: Inhibition of MRP in P-gp null human lung cancer cells assessed as potentiation of doxorubicin-induced cytotoxicity by measuring fold reduction in doxorubicin IC50
[12] = species: Homo sapiens; assay: Inhibition of MRP in human lung cancer cells assessed as potentiation of doxorubicin-induced cytotoxicity by measuring fold reduction in doxorubicin IC50; format: cell-based
[13] = species: Homo sapiens; assay: Inhibition of P-gp in human KBV1 cells assessed as potentiation of doxorubicin-induced cytotoxicity by measuring fold reduction in doxorubicin IC50 at 5 uM; format: cell-based
[14] = species: Homo sapiens; assay: Inhibition of P-gp in human KBV1 cells assessed as potentiation of paclitaxel-induced cytotoxicity by measuring fold reduction in paclitaxel IC50 at 5 uM; format: cell-based
[15] = species: Homo sapiens; assay: Inhibition of P-gp in human KBV1 cells assessed as potentiation of vinblastine-induced cytotoxicity by measuring fold reduction in vinblastine IC50 at 5 uM; format: cell-based
[16] = Inhibition of P-gp in human HCT116/VM46 cells assessed as potentiation of paclitaxel-induced cytotoxicity; format: cell-based; conditions: HCT-116/VM46
[17] = species: Homo sapiens; assay: Inhibition of P-gp in human CCRF-CEM/VLB100 cells assessed as potentiation of vincristine-induced cytotoxicity by measuring fold reduction in vincristine IC50
[18] = species: Homo sapiens; assay: Inhibition of P-gp in human A549/DDP cells assessed as potentiation of […]-induced cytotoxicity by measuring fold reduction in doxorubicin IC50 at 5 uM; format: cell-based
[19] = species: Homo sapiens; assay: Inhibition of P-gp in human K562/DOX cells assessed as potentiation of doxorubicin-induced cytotoxicity by measuring fold reduction in doxorubicin IC50 at 5 uM; format: cell-based
[20] = species: Homo sapiens; assay: Inhibition of P-gp in human A549/DDP cells assessed as potentiation of doxorubicin-induced cytotoxicity by measuring fold reduction in doxorubicin IC50 at 5 uM; format: cell-based
[21] = species: Homo sapiens; assay: Inhibition of P-gp in human Caco2 cells assessed as potentiation of doxorubicin-induced cytotoxicity by measuring fold reduction in doxorubicin IC50; format: cell-based
[22] = species: Homo sapiens; assay: Inhibition of P-gp in human CEM/DOX5000 cells assessed as potentiation of doxorubicin-induced cytotoxicity by measuring fold reduction in doxorubicin IC50; format: cell-based
[23] = Inhibition of P-gp in human Caco2 cells assessed as reduction in accumulation of calcein-AM preincubated for 30 mins followed by Rh123 addition measured after 90 mins by fluorescence spectrofluorometric method; format: cell-based; conditions: Caco-2
[24] = Inhibition of P-gp in human Caco2 cells assessed as reduction in accumulation of Rh123 preincubated for 30 mins followed by Rh123 addition measured after 90 mins by fluorescence spectrofluorometric method; format: cell-based; conditions: Caco-2
[25] = species: Homo sapiens; assay: Inhibition of P-gp in human SW620/DOX300 cells assessed as potentiation of doxorubicin-induced cytotoxicity by measuring fold reduction in doxorubicin IC50; format: cell-based
[26] = species: Homo sapiens; assay: Inhibition of P-gp in human KBV1 cells assessed as potentiation of vinblastine-induced cytotoxicity by measuring fold reduction in vinblastine IC50 at 50 uM; format: cell-based
[27] = species: Homo sapiens; assay: Inhibition of P-gp in human A549/PA cells assessed as synergistic cytotoxicity with paclitaxel after 48 hrs by SRB assay; format: cell-based
[28] = Inhibition of P-gp in human MCF7/DX1 cells assessed as […] Rh123 accumulation after 30 mins by FACS analysis; format: cell-based; conditions: MCF7/DX1, 0.5 h
[29] = Inhibition of P-gp in human MCF7/DX1 cells assessed as […] [3H]paclitaxel accumulation after 40 mins by scintillation counting method; format: cell-based

Sequence of Multidrug resistance-associated protein 1 (P33527 whole entry): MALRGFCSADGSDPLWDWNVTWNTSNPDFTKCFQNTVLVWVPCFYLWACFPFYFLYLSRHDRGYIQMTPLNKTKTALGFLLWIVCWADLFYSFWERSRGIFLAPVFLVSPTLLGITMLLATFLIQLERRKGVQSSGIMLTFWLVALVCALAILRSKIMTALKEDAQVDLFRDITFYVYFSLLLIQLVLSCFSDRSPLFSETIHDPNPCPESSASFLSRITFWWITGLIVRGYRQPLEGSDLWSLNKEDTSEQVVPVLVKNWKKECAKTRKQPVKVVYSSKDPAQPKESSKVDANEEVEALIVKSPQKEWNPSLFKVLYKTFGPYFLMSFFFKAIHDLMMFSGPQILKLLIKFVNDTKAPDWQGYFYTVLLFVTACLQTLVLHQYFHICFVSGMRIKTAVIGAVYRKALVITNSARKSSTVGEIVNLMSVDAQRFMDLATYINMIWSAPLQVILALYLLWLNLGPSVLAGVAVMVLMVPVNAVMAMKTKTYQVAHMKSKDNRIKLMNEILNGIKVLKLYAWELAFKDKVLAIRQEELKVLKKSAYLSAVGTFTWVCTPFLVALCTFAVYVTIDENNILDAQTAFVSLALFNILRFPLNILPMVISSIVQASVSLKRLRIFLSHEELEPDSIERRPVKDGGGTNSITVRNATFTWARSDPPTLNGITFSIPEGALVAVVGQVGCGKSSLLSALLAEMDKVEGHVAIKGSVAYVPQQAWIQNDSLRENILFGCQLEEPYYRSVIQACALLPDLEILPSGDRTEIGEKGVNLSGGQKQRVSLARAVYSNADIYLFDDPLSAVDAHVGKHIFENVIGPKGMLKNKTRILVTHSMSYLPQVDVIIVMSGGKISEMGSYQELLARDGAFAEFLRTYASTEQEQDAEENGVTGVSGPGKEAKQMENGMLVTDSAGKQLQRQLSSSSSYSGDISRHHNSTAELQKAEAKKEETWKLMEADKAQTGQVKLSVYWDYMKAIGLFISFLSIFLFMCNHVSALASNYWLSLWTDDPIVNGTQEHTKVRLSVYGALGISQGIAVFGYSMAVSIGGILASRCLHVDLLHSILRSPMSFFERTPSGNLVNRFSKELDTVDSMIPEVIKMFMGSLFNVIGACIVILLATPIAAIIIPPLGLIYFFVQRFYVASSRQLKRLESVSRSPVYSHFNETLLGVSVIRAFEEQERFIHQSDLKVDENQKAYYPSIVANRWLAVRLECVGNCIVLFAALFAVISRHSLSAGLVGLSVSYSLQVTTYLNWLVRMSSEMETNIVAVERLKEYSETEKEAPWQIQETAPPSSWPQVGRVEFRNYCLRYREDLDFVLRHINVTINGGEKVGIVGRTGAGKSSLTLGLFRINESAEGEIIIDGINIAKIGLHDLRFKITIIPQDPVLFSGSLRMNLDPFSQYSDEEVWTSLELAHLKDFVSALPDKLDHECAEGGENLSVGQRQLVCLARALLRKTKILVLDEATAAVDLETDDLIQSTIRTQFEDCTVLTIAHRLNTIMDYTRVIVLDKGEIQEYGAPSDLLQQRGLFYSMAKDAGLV

Structure (SMILES): COc1ccc(CCn2cc(-c3ccc(OC)c(OC)c3)c3c4cc(OC)c(OC)cc4oc(=O)c32)cc1OC
fold change (FC) [1]: 35 | fold change (FC) [2]: 6.2 | fold change (FC) [3]: 350 | fold change (FC) [4]: 350

Structure (SMILES): CN1c2ccccc2[C@@]23C[C@H]4C(=O)N5[C@H]6N(C[C@@]7(C)O[C@@H]7C2)c2ccccc2[C@@]6(C)C[C@H]5C(=O)N4[C@H]13
fold change (FC) [5]: 2

Structure (SMILES): COc1ccc(/C=C/NC(=O)c2c(-c3cc(OC)c(OC)c(OC)c3)c(-c3cc(OC)c(OC)c(OC)c3)c(C(=O)N/C=C/c3ccc(OC)cc3)n2CCc2ccc(OC)cc2)cc1
fold change (FC) [1]: 66

Structure (SMILES): CCCCCC(CC(C)=O)n1cnc2c(N)ncnc21 (stereo unspecified)
fold change (FC) [6]: 1.5 to 2.7

Structure (SMILES): COc1cc2c(cc1OC)-c1c(OC)c(OC)cc3c1[C@H](C2)N(C)CC3 [GLAUCINE]
fold change (FC) [7]: 22 | fold change (FC) [8]: 7 | fold change (FC) [9]: 7

Structure (SMILES): C=CC(C)(C)[C@@]12C[C@H]3c4nc5ccccc5c(=O)n4CC(=O)N3[C@@H]1N(C(C)=O)c1ccccc12
fold change (FC) [10]: 200 | fold change (FC) [11]: 15 | fold change (FC) [12]: 66

Structure (SMILES): CCCC[C@@]12[C@@H]3C[C@H]4[C@H]5[C@H](C)/C(=C6/OC(=O)C(C)=C6OC)O[C@]5(O3)[C@@H]1CCN42
fold change (FC) [13]: 4 to 5 | fold change (FC) [14]: 7 | fold change (FC) [15]: 5

Structure (SMILES): COc1ccc(C2=C(c3ccc(OC)c(OC)c3)C(=O)N(CCc3cc(Br)c(OCc4ccccc4)c(OCCN4CCOCC4)c3)C2=O)cc1OC
pEC50 [16]: 6.37

Structure (SMILES): C=CC(C)(C)[C@@]12C[C@H]3c4nc5ccccc5c(=O)n4[C@H](C)C(=O)N3[C@@H]1N(C(C)=O)c1ccccc12
fold change (FC) [17]: 700

Structure (SMILES): CCCCCCCCC(CC(=O)CCCCCCC(=O)O)n1cnc2c(N)ncnc21 (stereo unspecified)
fold change (FC) [6]: 1.5 to 2.7

Structure (SMILES): C=CC(C)(C)[C@]12c3ccccc3N(C(C)=O)[C@H]1N1C(=O)[C@@H](C)n3c(nc4ccccc4c3=O)[C@@H]1C2O (stereo partly specified)
fold change (FC) [18]: 8 | fold change (FC) [19]: 5 | fold change (FC) [20]: 8

Structure (SMILES): CN1Cc2c(ccc3c2OCO3)C2C(O)Cc3cc4c(cc3C21)OCO4 (stereo not drawn) [CHELIDONINE (+)]
fold change (FC) [21]: 6 | fold change (FC) [22]: 3 | pIC50 [23]: 4.96 | pIC50 [24]: 5.05

Structure (SMILES): COC(=O)c1c(-c2ccc(O)cc2)c(-c2ccc(O)cc2)cn1CC(=O)c1ccc(OC)cc1
fold change (FC) [25]: 5

Structure (SMILES): COC1=C(C)C(=O)O/C1=C1\O[C@@]23CCCN4CCC[C@@H](O2)[C@H]4[C@H]3[C@@H]1C
fold change (FC) [26]: 4

Structure (SMILES): COc1ccc2c3c(c4cc(OC)c(OC)cc4c2c1)C[C@H]1CCCN1C3
CI [27]: 0.45

pIC50 [28]: 5.77 | pIC50 [29]: 5.70
Structure (SMILES): C=C[C@H]1CN2CC[C@H]1C[C@@H]2[C@@H](OC(=O)CCCCCCCC(=O)O[C@@H](c1ccnc2ccc(OC)cc12)[C@H]1C[C@@H]2CCN1C[C@@H]2C=C)c1ccnc2ccc(OC)cc12
